Starred links: 1 amine or outer side, 2 acyl side, 3 side chain; linkers in the order of their positions; H or OH if unused. Positions of bridges follow the written chain, without caps; N, C: chain ends. Non-standard residues stand in square brackets, D forms with d. Residues, ends and D or L forms follow the SMILES beside them. Trp(7-aza) = N[C@@H](Cc1c[nH]c2ncccc12)C(=O)O; mXylylene = c1cc(C[*:1])cc(C[*:2])c1; hPhe = N[C@@H](CCc1ccccc1)C(=O)O; Phg = N[C@H](C(=O)O)c1ccccc1; NMeS = CN[C@@H](CO)C(=O)O; Nva = CCC[C@H](N)C(=O)O; Aib = CC(C)(N)C(=O)O
molecular target: C5 (Homo sapiens, UniProt P01031); assay: Human hemolysis assay (RBC lysis assay using complete human sera); type: cell-based; parameters: with complete human sera (Complement Technology, Tyler Tex.) and polypeptides; tissue Complement Technology, Tyler Tex; host or cells: complete human serum; details: inhibition of lysis of antibody-sensitized sheep erythrocytes, complete human sera
Sequence (P01031 19-1676): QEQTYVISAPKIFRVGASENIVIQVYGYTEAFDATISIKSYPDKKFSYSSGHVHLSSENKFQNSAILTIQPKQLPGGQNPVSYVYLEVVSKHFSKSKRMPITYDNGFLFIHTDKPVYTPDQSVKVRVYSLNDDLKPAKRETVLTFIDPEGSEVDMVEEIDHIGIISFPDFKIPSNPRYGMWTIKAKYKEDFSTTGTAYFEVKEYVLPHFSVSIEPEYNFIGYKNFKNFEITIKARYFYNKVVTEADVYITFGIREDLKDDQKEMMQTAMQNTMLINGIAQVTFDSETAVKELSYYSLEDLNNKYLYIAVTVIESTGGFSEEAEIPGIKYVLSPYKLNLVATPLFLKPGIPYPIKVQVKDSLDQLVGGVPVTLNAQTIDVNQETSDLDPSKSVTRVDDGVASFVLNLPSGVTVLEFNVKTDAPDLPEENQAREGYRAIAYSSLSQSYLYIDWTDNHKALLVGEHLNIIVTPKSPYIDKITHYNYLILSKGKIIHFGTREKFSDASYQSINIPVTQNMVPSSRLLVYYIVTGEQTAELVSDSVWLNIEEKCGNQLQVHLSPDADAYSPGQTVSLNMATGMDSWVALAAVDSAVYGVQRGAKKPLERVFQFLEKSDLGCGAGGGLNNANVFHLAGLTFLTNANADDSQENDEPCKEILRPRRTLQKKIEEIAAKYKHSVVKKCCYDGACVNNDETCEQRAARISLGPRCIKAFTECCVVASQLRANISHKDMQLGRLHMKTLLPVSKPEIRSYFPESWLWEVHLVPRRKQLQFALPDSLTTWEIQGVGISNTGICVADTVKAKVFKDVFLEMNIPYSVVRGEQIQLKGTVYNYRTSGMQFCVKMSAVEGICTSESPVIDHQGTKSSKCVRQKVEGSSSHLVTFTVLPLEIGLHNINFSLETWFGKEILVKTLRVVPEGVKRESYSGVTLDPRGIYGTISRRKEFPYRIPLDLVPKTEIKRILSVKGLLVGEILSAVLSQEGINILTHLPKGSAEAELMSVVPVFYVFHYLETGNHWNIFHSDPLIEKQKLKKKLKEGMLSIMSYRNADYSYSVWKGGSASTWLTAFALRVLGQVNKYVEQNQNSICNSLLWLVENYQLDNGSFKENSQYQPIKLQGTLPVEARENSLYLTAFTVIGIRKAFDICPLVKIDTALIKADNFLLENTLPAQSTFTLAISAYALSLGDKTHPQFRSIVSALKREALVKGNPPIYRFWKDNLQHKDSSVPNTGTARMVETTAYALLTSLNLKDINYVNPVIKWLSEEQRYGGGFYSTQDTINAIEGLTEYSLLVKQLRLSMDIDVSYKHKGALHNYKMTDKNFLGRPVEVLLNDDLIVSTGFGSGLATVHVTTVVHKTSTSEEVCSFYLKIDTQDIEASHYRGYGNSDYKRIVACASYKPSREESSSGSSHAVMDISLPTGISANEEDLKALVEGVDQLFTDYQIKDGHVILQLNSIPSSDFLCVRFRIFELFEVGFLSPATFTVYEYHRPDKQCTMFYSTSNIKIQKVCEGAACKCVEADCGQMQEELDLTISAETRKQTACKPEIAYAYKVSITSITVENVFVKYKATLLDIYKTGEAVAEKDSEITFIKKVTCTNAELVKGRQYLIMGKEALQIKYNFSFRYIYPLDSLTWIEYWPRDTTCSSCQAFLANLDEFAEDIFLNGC

| Compound | IC50 [µM] |
| --- | --- |
| CCC[C@H](NC(=O)[C@@H]1CSCc2cccc(c2)CSC[C@H](NC(=O)[C@H](CCC)NC(C)=O)C(=O)N[C@@H](c2ccccc2)C(=O)N[C@@H]([C@@H](C)O)C(=O)N[C@@H](Cc2c[nH]c3ncccc23)C(=O)N[C@@H](CCC(=O)O)C(=O)N[C@@H](CCc2ccccc2)C(=O)N(C)[C@@H](CO)C(=O)N[C@@H](C)C(=O)N1)C(N)=O [Compound R3095, [mXyly1(2,10)]Ac-Nvl-C-Phg-T-azaTrp-E-(homo)F-(N-Me)S-A-C-Nvl-NH2] (Ac-[Nva]C[Phg]T[Trp(7-aza)]E[hPhe][NMeS]AC[Nva]-NH2; linker 2-10 via mXylylene) | > 50 |
| CCC[C@H](NC(=O)[C@@H]1CSCc2cccc(c2)CSC[C@H](NC(=O)[C@H](CCC)NC(C)=O)C(=O)N[C@@H](c2ccccc2)C(=O)NC(C)(C)C(=O)N[C@@H](Cc2c[nH]c3ncccc23)C(=O)N[C@@H](CCC(=O)O)C(=O)N[C@@H](Cc2ccc(O)cc2)C(=O)N(C)[C@@H](CO)C(=O)N[C@@H](Cc2c[nH]cn2)C(=O)N1)C(N)=O [Compound R3096, [mXylyl(2,10)]Ac-Nvl-C-Phg-Aib-azaTrp-E-Y-(N-Me)S-H-C-Nvl-NH2] (Ac-[Nva]C[Phg][Aib][Trp(7-aza)]EY[NMeS]HC[Nva]-NH2; linker 2-10 via mXylylene) | > 50 |
| CCC[C@H](NC(=O)[C@@H]1CSCc2cccc(c2)CSC[C@H](NC(=O)[C@H](CCC)NC(C)=O)C(=O)N[C@@H](c2ccccc2)C(=O)N[C@@H]([C@@H](C)O)C(=O)N[C@@H](Cc2c[nH]c3ncccc23)C(=O)N[C@@H](CC(=O)O)C(=O)N[C@@H](Cc2ccc(O)cc2)C(=O)N(C)[C@@H](CO)C(=O)N[C@@H](C)C(=O)N1)C(N)=O [Compound R3097, [mXylyl(2,10)]Ac-Nvl-C-Phg-T-azaTrp-D-Y-(N-Me)S-A-C-Nvl-NH2] (Ac-[Nva]C[Phg]T[Trp(7-aza)]DY[NMeS]AC[Nva]-NH2; linker 2-10 via mXylylene) | > 100 |
| CCC[C@H](NC(=O)[C@@H]1CSCc2cccc(c2)CSC[C@H](NC(=O)[C@H](CCC)NC(C)=O)C(=O)N[C@@H](c2ccccc2)C(=O)N[C@@H]([C@@H](C)O)C(=O)N[C@@H](Cc2c[nH]c3ncccc23)C(=O)N[C@@H](CCC(N)=O)C(=O)N[C@@H](Cc2ccc(O)cc2)C(=O)N(C)[C@@H](CO)C(=O)N[C@@H](C)C(=O)N1)C(N)=O [Compound R3098, [mXylyl(2,10)]Ac-Nvl-C-Phg-T-azaTrp-Q-Y-(N-Me)S-A-C-Nvl-NH2] (Ac-[Nva]C[Phg]T[Trp(7-aza)]QY[NMeS]AC[Nva]-NH2; linker 2-10 via mXylylene) | > 100 |
| CCC[C@H](NC(=O)[C@@H]1CSCc2cccc(c2)CSC[C@H](NC(=O)[C@H](CCC)NC(C)=O)C(=O)N[C@@H](c2ccccc2)C(=O)N[C@@H]([C@@H](C)O)C(=O)N[C@@H](Cc2c[nH]c3ncccc23)C(=O)N[C@@H](CC(N)=O)C(=O)N[C@@H](Cc2ccc(O)cc2)C(=O)N(C)[C@@H](CO)C(=O)N[C@@H](C)C(=O)N1)C(N)=O [Compound R3099, [mXylyl(2,10)]Ac-Nvl-C-Phg-T-azaTrp-N-Y-(N-Me)S-A-C-Nvl-NH2] (Ac-[Nva]C[Phg]T[Trp(7-aza)]NY[NMeS]AC[Nva]-NH2; linker 2-10 via mXylylene) | > 100 |
| CCC[C@H](NC(=O)[C@@H]1CSCc2cccc(c2)CSC[C@H](NC(=O)[C@H](CCC)NC(C)=O)C(=O)N[C@@H](c2ccccc2)C(=O)N[C@@H]([C@@H](C)O)C(=O)N[C@@H](Cc2c[nH]c3ncccc23)C(=O)N[C@@H](CCC(=O)O)C(=O)N[C@@H](Cc2ccccc2)C(=O)N(C)[C@@H](CO)C(=O)N[C@@H](C)C(=O)N1)C(N)=O [Compound R3100, [mXylyl(2,10)]Ac-Nvl-C-Phg-T-azaTrp-E-F-(N-Me)S-A-C-Nvl-NH2] (Ac-[Nva]C[Phg]T[Trp(7-aza)]EF[NMeS]AC[Nva]-NH2; linker 2-10 via mXylylene) | 0.626 |

From patent US10208089B2, “Modulation of complement activity” (priority 2014, dated 2019)
